Where two headings read alike, the source gives them in different places.
Legend:
Assay type in all cases: in vivo
Phakopsora pachyrhizi [1] = assay: Test G: Compound 41 or 63 alone and in mixtures on soybean seedlings, Asian soybean rust, Colby synergy; settings: for pest or weed control at 0.346 ppm: Compound 41 0.346 ppm alone; for pest or weed control at 0.764 ppm: Compound 41 0.764 ppm alone
Source text: The general protocol for preparing test compositions for TEST G was as follows: Compound 41, Compound 63, N-(2,2,2-trifluoroethyl)-2-[[4-[5-(trifluoromethyl)-1,2,4-oxadiazol-3-yl]phenyl]methyl]-4-oxazolecarboxamide (b54.11a), ethyl 1-[[4-[[(1Z)-2-ethoxy-3,3,3-trifluoro-1-propen-1-yl]oxy]phenyl]methyl]-1H-pyrazole-4-carboxylate (b54.11c), ethyl 1-[[4-[[2-(trifluoromethyl)-1,3-dioxolan-2-yl]methoxy]phenyl]methyl]-1H-pyrazole-4-carboxylate (b54.11d), azoxystrobin, benzovindiflupyr, bixafen, chlorothalonil, cyproconazole, epoxiconazole, fenpropidin, fenpropimorph, fluindapyr, flutriafol, fluxapyroxad, inpyrfluxam, picoxystrobin, prothioconazole, pydiflumetofen, tebuconazole and trifloxystrobin were obtained as unformulated, technical-grade materials. Copper hydroxide and mancozeb was obtained as a formulated product marketed under the trademarks KOCIDE 3000 and MANZATE, respectively. Unformulated materials were first dissolved in acetone and then suspended at the desired concentration (in ppm) in acetone and purified water (50/50 mix by volume) containing 250 ppm of the surfactant Trem® 014 (polyhydric alcohol esters). Formulated materials were dispersed in sufficient water to give the desired concentration, and neither organic solvent nor surfactant was added to the suspension. The resulting test mixtures were then used in TEST G. The tests were run on four individual plants and the results reported as the mean average of the four plants.
The presence of a synergistic effect between two active ingredients was established with the aid of the Colby equation (see Colby, S. R. “Calculating Synergistic and Antagonistic Responses of Herbicide Combinations”, Weeds, (1967), 15, 20-22):
Using the method of Colby, the presence of a synergistic interaction between two active ingredients is established by first calculating the predicted activity, p, of the mixture based on activities of the two components applied alone. If p is lower than the experimentally established effect, synergism has occurred. In the equation above, A is the fungicidal activity in percentage control of one component applied alone at rate x. The B term is the fungicidal activity in percentage control of the second component applied at rate y. The equation estimates p, the expected fungicidal activity of the mixture of A at rate x with B at rate y if their effects are strictly additive and no interaction has occurred.
The test mixture was sprayed to the point of run-off on soybean seedlings. The following day the seedlings were inoculated with a spore suspension of Phakopsora pachyrhizi (the causal agent of Asian soybean rust) and incubated in a saturated atmosphere at 22° C. for 24 h and then moved to a growth chamber at 22° C. for 8 days, after which time visual disease ratings were made.
Results for TEST G are given below in Tables B-1 through J-1 for Compound 41, and Tables B-2 through J-2 for Compound 63. Each table corresponds to a set of evaluations performed together at the same time. In each table, a rating of 100 indicates 100% disease control and a rating of 0 indicates no disease control (relative to the controls). Columns labeled “Obsd” indicate the average of results observed from test run on four individual plants. Columns labeled “Exp” indicate the expected value for each treatment mixture using the Colby equation.

Phakopsora pachyrhizi [2] = assay: Test D: preventive spray on soybean seedlings, Asian soybean rust; settings: Rate 10 ppm
Source text: (§1) General protocol for preparing test suspensions for Tests A-F: the test compounds were first dissolved in acetone in an amount equal to 3% of the final volume and then suspended at the desired concentration (in ppm) in acetone and purified water (50/50 mix by volume) containing 250 ppm of the surfactant PEG400 (polyhydric alcohol esters). The resulting test suspensions were then used in Tests A-F.
The test solution was sprayed to the point of run-off on soybean seedlings. The following day the seedlings were inoculated with a spore suspension of Phakopsora pachyrhizi (the causal agent of Asian soybean rust) and incubated in a saturated atmosphere at 22° C. for 24 h and then moved to a growth chamber at 22° C. for 8 days, after which time visual disease ratings were made.
(§2) A rating of 100 indicates 100% disease control and a rating of 0 indicates no disease control (relative to the controls). A dash (-) indicates the compound was not tested.

[3] = system: Puccinia recondita f. sp. tritici; assay: Test B: preventive spray on wheat seedlings, wheat leaf rust; settings: Rate 10 ppm
Source text: as §1
The test solution was sprayed to the point of run-off on wheat seedlings. The following day the seedlings were inoculated with a spore suspension of Puccinia recondita f. sp. tritici (the causal agent of wheat leaf rust) and incubated in a saturated atmosphere at 20° C. for 24 h, and then moved to a growth chamber at 20° C. for 7 days, after which time disease ratings were made.
as §2

[4] = Phakopsora pachyrhizi, Table B-1, read-out: Test G Obsd
[5] = Phakopsora pachyrhizi, Table C-1, read-out: Test G Obsd

| Structure (SMILES) | Test D disease control rating (Phakopsora pachyrhizi [2]) [%] | Test B disease control rating [3] [%] | also measured |
| --- | --- | --- | --- |
| Cn1cc(C(=O)Nc2cccc3c2[C@@H]2CC[C@H]3C2=C(Cl)Cl)c(C(F)F)n1 (racemic) [Benzovindiflupyr, benzovindiflupyr] | – | – | Test G Obsd (Phakopsora pachyrhizi [1]; benzovindiflupyr alone 0.606 ppm): 67%; Test G Obsd (Phakopsora pachyrhizi [1]; benzovindiflupyr alone 0.980 ppm): 67% |
| Fc1ccc([C@]2(Cn3cncn3)O[C@H]2c2ccccc2Cl)cc1 (racemic) [Epoxiconazole, epoxiconazole] | – | – | pest or weed control at 46.795 ppm (Phakopsora pachyrhizi [1]; Phakopsora pachyrhizi, epoxiconazole alone 46.795 ppm, read-out: Test G Obsd): 23%; pest or weed control at 89.631 ppm (Phakopsora pachyrhizi [1]; Phakopsora pachyrhizi, epoxiconazole alone 89.631 ppm, read-out: Test G Obsd): 70% |
| O=C(NCC(F)(F)F)c1coc(Cc2ccc(-c3noc(C(F)(F)F)n3)cc2)n1 [(b54.11a)] | – | – | Test G Obsd (Phakopsora pachyrhizi [1]; Table B-1, (b54.11a) 0.471 ppm alone): 59%; Test G Obsd (Phakopsora pachyrhizi [1]; Table B-1, (b54.11a) 0.764 ppm alone): 75% |
| CO/C=C(/C(=O)OC)c1ccccc1Oc1cc(Oc2ccccc2C#N)ncn1 [Azoxystrobin, azoxystrobin] | – | – | Test G Obsd (Phakopsora pachyrhizi [1]; azoxystrobin alone 95.873 ppm): 70%; Test G Obsd (Phakopsora pachyrhizi [1]; azoxystrobin alone 169.226 ppm): 90% |
| Cn1cc(C(=O)Nc2ccc(F)cc2-c2ccc(Cl)c(Cl)c2)c(C(F)F)n1 [Bixafen, bixafen] | – | – | Test G Obsd (Phakopsora pachyrhizi [1]; Table C-1, bixafen 11.327 ppm alone): 54%; Test G Obsd (Phakopsora pachyrhizi [1]; Table C-1, bixafen 19.525 ppm alone): 55%; Test G Obsd (Phakopsora pachyrhizi [1]; Table C-2, bixafen 11.327 ppm alone): 54%; Test G Obsd (Phakopsora pachyrhizi [1]; Table C-2, bixafen 19.525 ppm alone): 55% |
| N#Cc1c(Cl)c(Cl)c(Cl)c(C#N)c1Cl [Chlorothalonil, chlorothalonil] | – | – | pest or weed control at 138.129 ppm (Phakopsora pachyrhizi [1]; Phakopsora pachyrhizi, chlorothalonil alone 138.129 ppm, read-out: Test G Obsd): 59%; pest or weed control at 222.081 ppm (Phakopsora pachyrhizi [1]; Phakopsora pachyrhizi, chlorothalonil alone 222.081 ppm, read-out: Test G Obsd): 85% |
| COC(=O)NCc1cc(-c2ccn(-c3c(F)cc(C4CC4)cc3F)n2)ccc1C [Compound 41, methyl N-[[5-[1-(4-cyclopropyl-2,6-difluorophenyl)-1H-pyrazol-3-yl]-2-methylphenyl]methyl]carbamate] | – | – | pest or weed control at 0.346 ppm (Phakopsora pachyrhizi [1]; [4]): 29%; pest or weed control at 0.764 ppm (Phakopsora pachyrhizi [1]; [4]): 62%; pest or weed control at 0.346 ppm (Phakopsora pachyrhizi [1]; [5]): 19%; pest or weed control at 0.764 ppm (Phakopsora pachyrhizi [1]; [5]): 45% |
| CC(C1CC1)C(O)(Cn1cncn1)c1ccc(Cl)cc1 (stereo not shown) [Cyproconazole, cyproconazole] | – | – | pest or weed control at 37.333 ppm (Phakopsora pachyrhizi [1]; Phakopsora pachyrhizi, cyproconazole alone 37.333 ppm, read-out: Test G Obsd): 44%; pest or weed control at 64.883 ppm (Phakopsora pachyrhizi [1]; Phakopsora pachyrhizi, cyproconazole alone 64.883 ppm, read-out: Test G Obsd): 68% |
| CC(Cc1ccc(C(C)(C)C)cc1)CN1CCCCC1 (stereo not shown) [Fenpropidin, fenpropidin] | – | – | pest or weed control at 78.393 ppm (Phakopsora pachyrhizi [1]; Phakopsora pachyrhizi, fenpropidin alone 78.393 ppm, read-out: Test G Obsd): 45%; pest or weed control at 161.74 ppm (Phakopsora pachyrhizi [1]; Phakopsora pachyrhizi, fenpropidin alone 161.740 ppm, read-out: Test G Obsd): 68% |
| CC(Cc1ccc(C(C)(C)C)cc1)CN1C[C@@H](C)O[C@@H](C)C1 (stereo partly shown) [Fenpropimorph, fenpropimorph] | – | – | pest or weed control at 242.823 ppm (Phakopsora pachyrhizi [1]; Phakopsora pachyrhizi, fenpropimorph alone 242.823 ppm, read-out: Test G Obsd): 33%; pest or weed control at 458.587 ppm (Phakopsora pachyrhizi [1]; Phakopsora pachyrhizi, fenpropimorph alone 458.587 ppm, read-out: Test G Obsd): 44% |
| COC(=O)NCc1cc(-c2cn(-c3c(Cl)cc(OC)cc3OC)nn2)ccc1C [compound 120] | 0 | 0 | – |
| COC(=O)NCc1cc(-c2cn(-c3c(Cl)cc(OC)cc3Cl)nn2)ccc1C [compound 123] | 0 | 0 | – |
| COC(=O)NCc1cc(-c2cn(-c3c(C)cc(OC)cc3C)nn2)ccc1C [compound 124] | 0 | 0 | – |
| COC(=O)NCc1cc(-c2cn(-c3c(F)cc(I)cc3F)nn2)ccc1C [compound 125] | 0 | 68 | – |
| COC(=O)NCc1cc(-c2cn(-c3c(F)cc(Br)cc3F)nn2)ccc1C [compound 126] | 0 | 57 | – |
| COC(=O)NCc1cc(-c2cn(-c3c(OC)cc(OC)cc3OC)nn2)ccc1C [compound 127] | 0 | 0 | – |
| COC(=O)NCc1cc(-c2cn(-c3c(Br)cc(OC)cc3Br)nn2)ccc1C [compound 128] | 0 | 0 | – |
| COC(=O)NCc1cc(-c2cn(-c3c(Br)cc(OC)cc3[N+](=O)[O-])nn2)ccc1C [compound 129] | 0 | 0 | – |
| COC(=O)NCc1cc(-c2cn(-c3c(F)cc(OC)cc3F)nn2)ccc1C [compound 130] | 0 | 68 | – |
| COC(=O)NCc1cc(-c2ccn(-c3c(F)cc(C4OCCO4)cc3F)n2)ccc1C [compound 133] | 100 | 99 | – |
| COC(=O)NCc1cc(-c2ccn(-c3c(Br)cc(I)cc3Br)n2)ccc1C [compound 136] | 59 | 19 | – |
| CCc1cc(F)c(-n2ccc(-c3ccc(C)c(CNC(=O)OC)c3)n2)c(F)c1 [compound 144] | 100 | 100 | – |
| CCCc1cc(F)c(-n2ccc(-c3ccc(C)c(CNC(=O)OC)c3)n2)c(F)c1 [compound 145] | 100 | 100 | – |
| C=Cc1cc(F)c(-n2ccc(-c3ccc(C)c(CNC(=O)OC)c3)n2)c(F)c1 [compound 146] | 100 | 100 | – |
| CC=Cc1cc(F)c(-n2ccc(-c3ccc(C)c(CNC(=O)OC)c3)n2)c(F)c1 [compound 147] | 100 | 99 | – |
| COC(=O)NCc1cc(-c2ccn(-c3c(F)cc(N4CCN(C)CC4)cc3F)n2)ccc1C [compound 148] | 0 | 0 | – |
| COC(=O)NCc1cc(-c2ccn(-c3c(F)cc(N4CCOCC4)cc3F)n2)ccc1C [compound 149] | 99 | 83 | – |
| COC(=O)NCc1cc(-c2ccn(-c3c(F)cc(N4CCCC4)cc3F)n2)ccc1C [compound 150] | 0 | 68 | – |
| COC(=O)NCc1cc(-c2ccn(-c3c(F)cc(N4CCCCC4)cc3F)n2)ccc1C [compound 151] | 19 | 68 | – |
| COC(=O)NCc1cc(-c2ccn(-c3c(F)cc(N(C)C)cc3F)n2)ccc1C [compound 152] | 99 | 98 | – |
